Source: patent US20030017148A1, “Prevention of insulin-dependent diabetes, complications thereof, or allograft rejection by inhibition of cyclooxygenase-2 activity” (Oklahoma Medical Research Foundation, priority 2000, published 2003)
Several values for one entry are separate records, joined by “and”; a condition that tells them apart may be missing. Identical values can stand only once.

Key:
STZ-induced IDDM [1] = assay: Multiple low-dose STZ-induced IDDM in mice, NS-398 treatment; format: in vivo
Experimental: Chemicals: Streptozotocin was obtained from Sigma Chemical Company (St. Louis, Mo.). NS-398 was obtained from Cayman Chemicals (Ann Arbor, Mich.). Determination of blood glucose level was performed using the glucose oxidase kit obtained from Sigma Chemical Co. Total glycated hemoglobin (Hb A1) was measured using a kit from Sigma. Animal treatment: Ball/c or CD-1 mice (male, 6-8 weeks) from Charles-River (Indianapolis, Ind.) were used in this study. STZ was dissolved in citrate buffer pH 4.5 and was administered within 10 minutes of its dissolution. Animals receiving NS-398 treatment were injected with this compound 15 min prior to STZ treatment. Since STZ is both toxic and carcinogenic, extreme caution was practiced in its handling. NS-398 was dissolved in dimethylsulfoxide (DMSO). […] To control for the effect of DMSO, mice in the STZ group received 40 μl injections of DMSO for the same number of days as the STZ+NS-398 group. At different time intervals after the treatments, tail tip blood was drawn and used for the measurement of blood glucose levels and/or glycated hemoglobin. [table] […] PBS (control group) for 5 consecutive days. […] The STZ group received only STZ injections. […] For histological studies, 35 days following the treatments (multiple low-dose STZ±NS-398), mice were anaesthetized and perfused with 4% paraformaldehyde and pancreata were removed and post-fixed for an additional day. The paraffin sections (6 μ) were stained with Gambier's aldehyde fuchsia for the identification of pancreatic β cells. Untreated mice were used as controls for these studies. Statistical analyses: Statistical analyses of the data were performed using one way analysis of variance (Anoa) followed by Student's t-test. In order to determine whether NS-398 treatment would protect the animals against the diabetogenic action of STZ, blood glucose level, and the level of glycated hemoglobin (a marker of chronic hyperglycemia) were monitored in the mice treated with STZ in the absence and presence of NS-398. Histological studies were also performed on the pancreata of the treated animals in order to obtain morphological information on the status of the islet β cells.

[2] = system: high-dose STZ-induced IDDM; assay: Single high-dose STZ-induced IDDM in mice, NS-398 pre-treatment; format: in vivo; conditions: 48 h after single STZ 220 mg/Kg; NS-398 10 mg/Kg 15 min prior to STZ
Experimental: Animal treatment: Ball/c or CD-1 mice (male, 6-8 weeks) from Charles-River (Indianapolis, Ind.) were used in this study. STZ was dissolved in citrate buffer pH 4.5 and was administered within 10 minutes of its dissolution. Animals receiving NS-398 treatment were injected with this compound 15 min prior to STZ treatment. Since STZ is both toxic and carcinogenic, extreme caution was practiced in its handling. NS-398 was dissolved in dimethylsulfoxide (DMSO). […] To control for the effect of DMSO, mice in the STZ group received 40 μl injections of DMSO for the same number of days as the STZ+NS-398 group. At different time intervals after the treatments, tail tip blood was drawn and used for the measurement of blood glucose levels and/or glycated hemoglobin. [table] […] PBS (control group) for 5 consecutive days. […] The STZ group received only STZ injections.

STZ-induced IDDM [3] = assay: Multiple low-dose STZ-induced IDDM in CD-1 mice, PDTC treatment; format: in vivo; conditions: for Blood Glucose Level: STZ 40 mg/Kg 5 days, PDTC 150 mg/Kg daily, 100 mg/Kg from day 7, 11 treatments
Experimental: Method. CD-1 mice were divided into two groups (6 mice/group). Group 1 was treated with STZ (40 mg/Kg dissolved in cold sodium citrate buffer, pH 4.5) for 5 consecutive days. Group 2 was treated with STZ as described and received daily treatments of PDTC (150 mg/Kg, dissolved in physiological saline) starting from day 1 of STZ treatment. The PDTC dose was reduced to 100 mg/Kg at day 7 of the treatment. A total of 11 daily treatments of PDTC were given to the mice in this group (up to day 11 from the start of STZ treatment). Blood glucose levels were periodically determined in these mice.

[4] = in vivo; cited from earlier work
COX-2 = biological target: T1, COX-2 (Homo sapiens, UniProt P35354); conditions: cellular systems; cited from earlier work
T1 sequence (P35354 18-604): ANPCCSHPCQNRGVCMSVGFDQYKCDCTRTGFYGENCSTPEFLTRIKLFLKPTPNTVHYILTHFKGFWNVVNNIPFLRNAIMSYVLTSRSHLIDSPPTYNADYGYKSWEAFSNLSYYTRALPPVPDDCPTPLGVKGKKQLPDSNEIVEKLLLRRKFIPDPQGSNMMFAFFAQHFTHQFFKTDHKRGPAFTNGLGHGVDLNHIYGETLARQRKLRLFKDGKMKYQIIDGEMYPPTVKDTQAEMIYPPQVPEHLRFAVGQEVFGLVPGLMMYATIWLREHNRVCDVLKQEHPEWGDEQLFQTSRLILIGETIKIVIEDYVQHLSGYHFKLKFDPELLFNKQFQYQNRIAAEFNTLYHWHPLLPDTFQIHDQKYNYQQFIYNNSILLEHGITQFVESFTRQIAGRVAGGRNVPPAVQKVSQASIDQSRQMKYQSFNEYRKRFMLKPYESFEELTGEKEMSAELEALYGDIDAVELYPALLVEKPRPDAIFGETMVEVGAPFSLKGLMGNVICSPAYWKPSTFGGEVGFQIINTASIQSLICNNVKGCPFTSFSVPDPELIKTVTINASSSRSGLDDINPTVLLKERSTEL

[5] = system: IDDM in low-dose STZ model; conditions: cited from earlier work
[6] = Tolerability of indomethacin in STZ-treated mice; conditions: indomethacin 3 mg/Kg/day with STZ 40 mg/Kg/day for 5 days; 5 mice/group
Experimental: In experiment 4, two groups of mice (5 mice/group) were treated with STZ (40 mg/Kg/day for 5 days). One group of these mice received daily treatments of indomethacin (3 mg/Kg/day). Indomethacin was dissolved in DMSO and an injection volume of 40 μl was used.

CN(N=O)C(=O)N[C@H]1C(O)O[C@H](CO)[C@@H](O)[C@@H]1O (mixture of isomers) [STZ, Streptozotocin]
Blood Glucose Level (STZ-induced IDDM [1]; 30 days following completion of STZ treatment, STZ 40 mg/Kg/day 5 days, NS-398 5 mg/Kg/day ip from day 1, continued 6 days after STZ, mean ± SD): 304.0 ± 91.6 mg/dL
glycated hemoglobin level (FIG. 2) (STZ-induced IDDM [1]; 30 days following treatment, STZ 40 mg/Kg/day 5 days ± NS-398): significantly elevated levels of glycated hemoglobin
histology of pancreatic islet β cells (aldehyde fuchsin, FIG. 3) (STZ-induced IDDM [1]; 35 days following multiple low-dose STZ ± NS-398): nearly completely destroyed
blood glucose level (FIG. 1) (STZ-induced IDDM [1]; experiment 1: STZ 40 mg/Kg/day ip 5 days, NS-398 10 mg/Kg/day, 11 injections from day 1, followed up to 28 days after cessation of NS-398): progressive rise in the blood glucose concentration
Blood Glucose Level [2]: 311.1 ± 80.7 mg/dL
Blood Glucose Level (STZ-induced IDDM [3]; day 11 of treatment): 249.0 ± 50.2 mg/dL
Blood Glucose Level (STZ-induced IDDM [3]; day 19 of treatment): 446.7 mg/dL and 446.7 ± 106.1 mg/dL

CS(=O)(=O)Nc1cc2c(cc1Oc1ccc(F)cc1F)C(=O)CC2 [Flosulide]
ID50 [4]: < 0.1 mg/kg

Cc1nc(C2CCCCC2)c(-c2ccc(S(N)(=O)=O)c(F)c2)o1 [JTE-522, 4-(4-cyclohexyl-2-methyloxazol-5-yl)-2-Fluorobenzene Sulfonamide]
IC50 (COX-2): 15.1 nM

CS(=O)(=O)Nc1cc2c(cc1Sc1ccc(F)cc1F)C(=O)CC2 [L-745,337, 5-methane sulfonamido-6-(2,4-difluorothiophenyl)-1-indanone]
ED50 [4]: 2 mg/kg
ID50 [4]: 0.4 mg/kg

Cc1ccc(-c2ncc(Cl)cc2-c2ccc(S(C)(=O)=O)cc2)cn1 [L-791,456, 5-Chloro-3(4-methylsulfonyl) phenyl-2-(2-methyl-5-pyridinyl) pyridine]
ED50 [4]: 0.6 mg/kg

CC(C)(C)[N+]([O-])=Cc1ccccc1 [PBN, phenyl N-tert-butylnitrone]
protection against IDDM [5]: protect against IDDM

CCSc1nnc(-c2cc(C(C)(C)C)c(O)c(C(C)(C)C)c2)s1 [PD164387]
ED40 [4]: 7.1 mg/kg

S=C(S)N1CCCC1 [PDTC, Pyrrolidine Dithiocarbamate]
protection from STZ-induced IDDM (STZ-induced IDDM [3]; PDTC daily from day 1 of STZ treatment): protected from STZ-induced IDDM
Blood Glucose Level (STZ-induced IDDM [3]; day 11 of treatment): 190.8 ± 23.2 mg/dL
Blood Glucose Level (STZ-induced IDDM [3]; day 19 of treatment): 199.6 mg/dL and 199.6 ± 35.6 mg/dL

CS(=O)(=O)c1ccc(C2=C(c3ccc(F)cc3)CCC2)cc1 [SC-57666, 1-[2-(4-Fluorophenyl)cyclopenten-1-yl]-4-(methylsulfonyl) benzene]
ED50 [4]: low

COc1ccc2c(c1)c(CC(=O)O)c(C)n2C(=O)c1ccc(Cl)cc1 [indomethacin]
mice that died during or following treatment [6]: Four out of five
